Data: PubChem BioAssay AID330 (DTP/NCI, 2004)
“And” between values parts separate entries of the source, which are not always exact repeats. Equal values may be shown once. Toxic doses and inconclusive results are not listed. How the source made its calls: active means survival T/C of 150% or more; inactive means T/C below 125% in these data.

Tested on: P388 leukemia ip, CD2F1 mice, survival T/C
Assay: NCI In Vivo Anticancer Drug Screen. Data for tumor model P388 Leukemia (intraperitoneal) in CD2F1 (CDF1) mice
Settings: endpoint: median survival time, higher = longer survival
How it was run: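 Mice carrying the transplanted tumor received test compound or vehicle. Survival was recorded in each group, and the value is the treated-group measurement divided by that of the vehicle-treated control group.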

[1] = dose: 100.0 mg/kg/injection, schedule: Q04DX003 (ip), vehicle: saline with Tween-80
[2] = dose: 200.0 mg/kg/injection, schedule: Q04DX003 (ip), vehicle: saline with Tween-80
[3] = dose: 400.0 mg/kg/injection, schedule: Q04DX003 (ip), vehicle: saline with Tween-80
[4] = dose: 60.0 mg/kg/injection, schedule: Q01DX005 (ip), vehicle: saline
[5] = dose: 120.0 mg/kg/injection, schedule: Q01DX005 (ip), vehicle: saline
[6] = dose: 240.0 mg/kg/injection, schedule: Q01DX005 (ip), vehicle: saline
[7] = dose: 60.0 mg/kg/injection, schedule: Q01DX005 (ip), vehicle: saline with Tween-80
[8] = dose: 120.0 mg/kg/injection, schedule: Q01DX005 (ip), vehicle: saline with Tween-80
[9] = dose: 50.0 mg/kg/injection, schedule: Q01DX005 (ip), vehicle: saline with Tween-80
[10] = dose: 100.0 mg/kg/injection, schedule: Q01DX005 (ip), vehicle: saline with Tween-80
[11] = dose: 200.0 mg/kg/injection, schedule: Q01DX005 (ip), vehicle: saline with Tween-80
[12] = dose: 100.0 mg/kg/injection, schedule: Q01DX009 (ip), vehicle: saline with Tween-80
[13] = dose: 200.0 mg/kg/injection, schedule: Q01DX009 (ip), vehicle: saline with Tween-80

Measured: T/C

Cc1ccccc1N1C(=O)[N+]2(CCCCC2)N=C1[O-]
inactive: [1] 99 % of control | [2] 100 % of control | [3] 92 % of control

Cc1ccc(C(=O)C(c2nc3n(c2O)/C(=N/C(=O)Nc2ccc(Cl)cc2)N=N3)c2nc3n(c2O)/C(=N/C(=O)Nc2ccc(Cl)cc2)N=N3)cc1
inactive: [4] 99 % of control | [5] 97 % of control | [6] 87 % of control

COc1nc(N)c(NC(C)=O)c(=O)n1C
inactive: [4] 96 % of control | [5] 96 % of control | [6] 93 % of control

c1ccc2[nH]cnc2c1
inactive: dose: 20.0 mg/kg/injection, schedule: Q04DX003 (ip), vehicle: other 100 % of control | dose: 40.0 mg/kg/injection, schedule: Q04DX003 (ip), vehicle: other 99 % of control | dose: 40.0 mg/kg/injection, schedule: Q04DX003 (oral), vehicle: other 100 % of control | dose: 50.0 mg/kg/injection, schedule: Q01DX009 (ip), vehicle: suspension in saline 98 % of control | dose: 80.0 mg/kg/injection, schedule: Q04DX003 (ip), vehicle: other 95 % of control | dose: 100.0 mg/kg/injection, schedule: Q01DX009 (ip), vehicle: suspension in saline 90 % of control | [1] 100 % of control | dose: 160.0 mg/kg/injection, schedule: Q04DX003 (ip), vehicle: other 100 % of control | dose: 160.0 mg/kg/injection, schedule: Q04DX003 (oral), vehicle: other 104 % of control | dose: 200.0 mg/kg/injection, schedule: Q01DX009 (ip), vehicle: suspension in saline 106 % of control | [2] 100 % of control | dose: 320.0 mg/kg/injection, schedule: Q04DX003 (ip), vehicle: other 100 % of control | [3] 90 % of control

CC(=O)OC1CC(O)CC2=CCC3C4CCC(C(C)(O)C(O)CC5COC(=O)C5C)C4(C)CCC3C21C (stereo not given)
inactive: dose: 4.0 mg/kg/injection, schedule: Q01DX005 (ip), vehicle: distilled water + Tween-80 96 % of control | dose: 8.0 mg/kg/injection, schedule: Q01DX005 (ip), vehicle: distilled water + Tween-80 95 % of control | dose: 16.0 mg/kg/injection, schedule: Q01DX005 (ip), vehicle: distilled water + Tween-80 96 % of control | dose: 32.0 mg/kg/injection, schedule: Q01DX005 (ip), vehicle: distilled water + Tween-80 91 % of control and 97 % of control | dose: 64.0 mg/kg/injection, schedule: Q01DX005 (ip), vehicle: distilled water + Tween-80 87 % of control and 94 % of control

O=C1OC(OC/C(Br)=C(/Br)COC2OC(=O)C(Cl)=C2Cl)C(Cl)=C1Cl (stereo not given)
inactive: [7] 106 % of control | [8] 108 % of control

CCCCC(CC)C(=O)OC(C)C(N)=O (stereo not given)
inactive: dose: 50.0 mg/kg/injection, schedule: Q01DX005 (ip), vehicle: saline 105 % of control | dose: 100.0 mg/kg/injection, schedule: Q01DX005 (ip), vehicle: saline 101 % of control | dose: 200.0 mg/kg/injection, schedule: Q01DX005 (ip), vehicle: saline 101 % of control

Oc1ccc(C2(c3ccc(O)cc3)C3CC4CC(C3)CC2C4)cc1
inactive: dose: 50.0 mg/kg/injection, schedule: Q01DX009 (ip), vehicle: Klucel (hydroxypropylcellulose) (HPC) 104 % of control | dose: 100.0 mg/kg/injection, schedule: Q01DX009 (ip), vehicle: Klucel (hydroxypropylcellulose) (HPC) 103 % of control | dose: 200.0 mg/kg/injection, schedule: Q01DX009 (ip), vehicle: Klucel (hydroxypropylcellulose) (HPC) 100 % of control

O=C(CSc1nnc(-c2ccc(Cl)cc2)s1)Nc1nccs1
inactive: [7] 89 % of control | [8] 89 % of control | dose: 240.0 mg/kg/injection, schedule: Q01DX005 (ip), vehicle: saline with Tween-80 89 % of control

O=C(NCCN1C(=O)C2C3CCC(O3)C2C1=O)Nc1ccc([N+](=O)[O-])cc1[N+](=O)[O-] (stereo not given)
inactive: [7] 91 % of control | [8] 91 % of control

COc1ccccc1Nc1ncnc2sc3c(c12)CCCC3
inactive: [9] 101 % of control | [10] 95 % of control | [11] 101 % of control

CC(=O)[O][Hg][c]1s[c]([Hg][O]C(C)=O)[c]([Hg][O]C(C)=O)[c]1[Hg][O]C(C)=O
inactive: dose: 3.0 mg/kg/injection, schedule: Q01DX009 (ip), vehicle: saline with Tween-80 120 % of control | dose: 4.0 mg/kg/injection, schedule: Q01DX009 (ip), vehicle: saline with Tween-80 109 % of control | dose: 6.0 mg/kg/injection, schedule: Q01DX009 (ip), vehicle: saline with Tween-80 104 % of control | dose: 9.0 mg/kg/injection, schedule: Q01DX009 (ip), vehicle: saline with Tween-80 90 % of control

CCc1cc(C(=O)OC)c(=O)n2c1-c1[nH]c3ccccc3c1CC2
inactive: dose: 50.0 mg/kg/injection, schedule: Q01DX005 (ip), vehicle: Klucel (hydroxypropylcellulose) (HPC) 94 % of control | dose: 100.0 mg/kg/injection, schedule: Q01DX005 (ip), vehicle: Klucel (hydroxypropylcellulose) (HPC) 95 % of control | dose: 200.0 mg/kg/injection, schedule: Q01DX005 (ip), vehicle: Klucel (hydroxypropylcellulose) (HPC) 89 % of control

Cc1cccc(C)c1NC(=O)C(=O)/C(=C(\N)c1ccccc1)c1ccccc1
inactive: [9] 101 % of control | [10] 94 % of control | [11] 90 % of control

COc1ccc(/C=C/c2nc(Nc3ccc(O)c(CN4CCCCC4)c3)c3ccccc3n2)cc1
inactive: dose: 50.0 mg/kg/injection, schedule: Q01DX009 (ip), vehicle: distilled water + alcohol 99 % of control | dose: 100.0 mg/kg/injection, schedule: Q01DX009 (ip), vehicle: distilled water + alcohol 100 % of control | dose: 200.0 mg/kg/injection, schedule: Q01DX009 (ip), vehicle: distilled water + alcohol 91 % of control

O=C1N/C(=N\c2nc3ccccc3s2)c2ccccc21
inactive: dose: 6.25 mg/kg/injection, schedule: Q01DX009 (ip), vehicle: saline with Tween-80 88 % of control | dose: 25.0 mg/kg/injection, schedule: Q01DX009 (ip), vehicle: saline with Tween-80 91 % of control | [12] 86 % of control | [13] 89 % of control

CCOC(=O)C1=C(C)NC(C)=C(C(=O)OCC)C1c1ccncc1
inactive: dose: 25.0 mg/kg/injection, schedule: Q01DX009 (ip), vehicle: other 103 % of control | dose: 50.0 mg/kg/injection, schedule: Q01DX009 (ip), vehicle: other 89 % of control | dose: 100.0 mg/kg/injection, schedule: Q01DX009 (ip), vehicle: other 96 % of control | dose: 200.0 mg/kg/injection, schedule: Q01DX009 (ip), vehicle: other 97 % of control | dose: 400.0 mg/kg/injection, schedule: Q01DX009 (ip), vehicle: other 95 % of control

CN(C)CCN(C)C(=N)N
inactive: dose: 25.0 mg/kg/injection, schedule: Q01DX009 (ip), vehicle: saline 100 % of control and 105 % of control | dose: 50.0 mg/kg/injection, schedule: Q01DX009 (ip), vehicle: saline 104 % of control | dose: 100.0 mg/kg/injection, schedule: Q01DX009 (ip), vehicle: saline 91 % of control and 96 % of control | dose: 200.0 mg/kg/injection, schedule: Q01DX009 (ip), vehicle: saline 88 % of control and 94 % of control

COC1=C(C)C(=O)c2c(c(/C=N/NC(N)=S)c(Cl)n2C)C1=O
inactive: dose: 100.0 mg/kg/injection, schedule: Q01DX001 (ip), vehicle: saline with Tween-80 103 % of control | dose: 200.0 mg/kg/injection, schedule: Q01DX001 (ip), vehicle: saline with Tween-80 93 % of control | dose: 400.0 mg/kg/injection, schedule: Q01DX001 (ip), vehicle: saline with Tween-80 96 % of control

O=C(NCCCNC(=O)C12CC3CC(CC(C3)C1)C2)C12CC3CC(CC(C3)C1)C2
inactive: [9] 98 % of control | [10] 92 % of control | [11] 100 % of control

Brc1ccc(Nc2nnc3nc(-c4ccccc4)c(-c4ccccc4)nn23)cc1
inactive: [9] 89 % of control | [10] 89 % of control | [11] 97 % of control

Nc1nc(SC2CCCCC2)c2[nH]cnc2n1
inactive: [12] 90 % of control | [1] 100 % of control | [13] 95 % of control | [2] 116 % of control | dose: 400.0 mg/kg/injection, schedule: Q01DX009 (ip), vehicle: saline with Tween-80 90 % of control | [3] 108 % of control

Cn1cnc2c(N(CCO)CCO)ncnc21
inactive: dose: 50.0 mg/kg/injection, schedule: Q01DX005 (ip), vehicle: distilled water + Tween-80 + alcohol 109 % of control | dose: 100.0 mg/kg/injection, schedule: Q01DX005 (ip), vehicle: distilled water + Tween-80 + alcohol 105 % of control | dose: 200.0 mg/kg/injection, schedule: Q01DX005 (ip), vehicle: distilled water + Tween-80 + alcohol 106 % of control

O=C(CN1CCCC1)Nc1nc(-c2ccc(Cl)cc2)cs1
inactive: [9] 96 % of control | [10] 100 % of control | [11] 91 % of control
